This is an account of results in patent US11654159B2, “Therapeutic use of electroacupuncture-induced mesenchymal stem cells” (UNIVERSITY OF FLORIDA RESEARCH FOUNDATION, INC., priority 2016, dated 2023).

In assay [1] the test system is MSCs (Lin− CD90+CD44hi cells). Kind of assay: Pharmacological disinhibition of the dorsomedial regions of the tuberal hypothalamus: blood cells by flow cytometry. The following applies: rats. It counts as in vivo, rat. Here is the method: Adult male Sprague-Dawley rats (300-350 g; Harlan Laboratories, Indianapolis, Ind.), were housed in plastic cages under standard environmental conditions (22° C.; 12/12 light/dark cycle; lights on at 7:00 A.M.) for 7-10 days prior to the surgical manipulations. Food and water were provided ad libitum. All experiments were conducted in accordance with the Guide for the Care and Use of Laboratory Animals, 8th Edition (Institute for Laboratory Animal Research, The National Academies Press, Washington, D.C., 2011) and the guidelines of the IUPUI Institutional Animal Care and Use Committee.
Once rats were anesthetized with an isoflurane system (MGX Research Machine; Vetamic, Rossville, Ind.), they were placed in a small animal stereotaxic frame (Model 963 Ultra Precise Frame, Kopf, Tujunga, Calif.). […]
For orientation: A flow cytometer gives signals particle by particle.

Assay [2] concerns rat MSCs (Lin− CD90+CD44hi cells). As to conditions: rats. The protocol: (§1) Sprague-Dawley rats were injected with epinephrine (SO, El Monte, Ca) intraperitoneally at 50 μg/kg. Uninjected rats were used as baseline controls. Rats were euthanized at 2, 4, and 6 hours post injection. Blood was collected and processed for flow cytometry as described below. A separate cohort of rats was injected IP with 50 mg/kg dopamine for 4 days consecutively. After last injection, rats were euthanized at 2 and 4 hours post injection. Blood was collected and processed for flow cytometry as described below.
PBMCs were isolated using lympholyte M (Cedarlene, Ontario, Canada) density gradient separation and centrifuged at room temperature at 740×g for 30 minutes.
PBMCs were stained with the MPFC protocols in real-time within 24 h after blood collection at the Angio BioCore, IUPUI, for the identification of MSCs as previously described.^50-53 23 PBMCs were incubated with Fc blocking reagent (Miltenyi Biotec or BD biosciences) for 10 minutes on ice and stained as published^50. Cells were incubated with titrated antibodies for 30 minutes at 4° C., washed twice in PBS with 2% FBS, fixed in 1% paraformaldehyde (Tousimis, Rockville, Md.), and run on a BD LSRII flow cytometer (BD) equipped with a 405 nm violet laser, 488 nm blue laser and 633 nm red laser. Data were acquired uncompensated and exported as FCS 3.0 files, and analyzed utilizing FlowJo software, version 9.7.5 or version X (Tree Star, Inc, Ashland, Oreg.). “Fluorescent minus one” (FMO) gating controls were used to ensure proper gating of positive events^50,52,54. In order to resolve the rare and/or dim populations of interest, specific antigen and fluorochrome conjugate coupling was optimized for the six-antibody plus a viability marker staining panel^50-54. BD compBeads (BD Biosciences) were used for color compensations.
Rat MSC were gated sequentially on FMO gates for LIVE/DEAD^−CD45^−erythroid cells^−CD31^−CD11b^− CD90^+CD44H^+ cells.

The test system of another assay is plasma NE. As to conditions: rats. Here is the method: as §1
NE levels were measured in EA-treated horses using NE ELISA kit (ALPCO™, Salem, N.H.) according to the manufacturer's instructions. Plasma NE, Epi and DA levels were measured in EA treated rats using the TriCAT ELISA kit (ALPCO™).

The test system of a further assay is MSCs. Kind of assay: Propranolol pretreatment before EA: MSC mobilization. It counts as in vivo, mice. From the text: Blood was collected and processed for flow cytometry as described below.

`C[N+]1(C)CCc2cc3c(cc2[C@H]1[C@@H]1OC(=O)c2c1ccc1c2OCO1)OCO3.[I-]` [bicuculline methiodide]: in assay [1] (30 pmol into tuberal hypothalamus, p=0.412), the “total number of cells in the blood” value is on record as “did not alter”. The “percentage of MSCs (Lin− CD90+CD44hi cells)” value in assay [1] (highest dose 50 pmol, 4 hours post injection, p=0.027) is reported as “did increase”.

For the molecule `NCCc1ccc(O)c(O)c1` [dopamine], the “time of increase in circulating MSCs” value in assay [2] (dopamine IP) amounted to 2 h. Moreover, the NE levels entry with plasma NE (dopamine 50 mg/kg for 4 consecutive days) is recorded as “pointed increase”. Besides, in the assay with plasma NE (dopamine IP), the “time of peak in plasma NE concentration post administration” value was 2 h.

For `CNC[C@H](O)c1ccc(O)c(O)c1` [epinephrine], the “MSCs in peripheral blood” value in assay [2] (epinephrine 50 μg/kg intraperitoneally, vs uninjected baseline, p=0.0125) was “significant elevation”. For the same molecule, the “time of increase of rat MSCs in the circulation” value in assay [2] (epinephrine IP) is 6 h.

Turning to `CC(C)NCC(O)COc1cccc2ccccc12` (stereo not drawn) [propranolol], the “mobilization of MSCs by EA” value with MSCs (mice pretreated for 24 hours prior to EA, p<0.01) is recorded as “prevented”. For the same molecule, the “MSC mobilization by EA” value with MSCs (pretreatment, at 4 hours, compared to untreated animals, p=0.01) is given as “inhibited”.
